{
  "source": "paper PMC6960228",
  "about": "“Ethoxysanguinarine, a Novel Direct Activator of AMP-Activated Protein Kinase, Induces Autophagy and Exhibits Therapeutic Potential in Breast Cancer Cells” (Frontiers in Pharmacology, 2020)",
  "key": {"[1]": {"tested_on": "MCF-7", "assay": "MTT cytotoxicity assay", "type": "cell-based", "settings": "Homo sapiens, MCF7, MCF-7, 24 h", "from_the_text": "(§1) Human BC cell lines MCF-7, MDA-MB-231, DMA-MB-436, SK-BR3, MDA-MB-468, MDA-MB-453, and MDA-MB-435S and non-tumorigenic MCF-10A human mammary epithelial cells were obtained from American Type Culture Collection (ATCC; Manassas, VA, USA). MCF-7, SK-BR3, MDA-MB-231, and MDA-MB-436 cells were maintained in Dulbecco’s modified Eagle’s medium (DMEM; high glucose; Gibco; Thermo Fisher Scientific, Inc., Waltham, MA, USA) supplemented with 10% fetal bovine serum (FBS; HyClone; Logan, UT, USA) and antibiotics and incubated in a humidified atmosphere with 5% CO2 at 37°C. MDA-MB-468, MDA-MB-453, and MDA-MB-435S cells were maintained in Leibovitz’s L-15 (Gibco) supplemented with 10% FBS and antibiotics and incubated in a humidified atmosphere without CO2 at 37°C. MCF-10A cells were maintained in DMEM/F12 medium containing 5% horse serum (HS), insulin ([…]), epidermal growth factor (EGF, 20 ng/mL), choleratoxin ([…]), hydrocortisone ([…]), penicillin (50 U/mL), and streptomycin (50 U/mL), and incubated in a humidified atmosphere with CO2 at 37°C.\n(§2) Cells were seeded into 96-well plate and pre-cultured for 24 h, then treated with Eth for 24. Cell cytotoxicity was determined by MTT assay. The absorbance was measured at 490 nm by automated microplated reader (BioTek Instruments, Inc., Winooski, VT, USA), and the cell death rate was calculated as followed: inhibition rate (%) = (average A490 of the control group − average A490 of the experimental group)/(average A490 of the control group − average A490 of the blank group) × 100%. Cell viability was estimated by trypan blue dye exclusion."}, "[2]": {"tested_on": "SK-BR3", "assay": "MTT cytotoxicity assay", "type": "cell-based", "settings": "Homo sapiens, SK-BR-3, SK-BR3, 24 h, means ± SD of quadruplicate determinations", "from_the_text": "as §1, §2"}, "[3]": {"tested_on": "MDA-MB-468", "assay": "MTT cytotoxicity assay", "type": "cell-based", "settings": "Homo sapiens, MDA-MB-468, 24 h, means ± SD of quadruplicate determinations", "from_the_text": "as §1, §2"}, "[4]": {"tested_on": "MDA-MB-231", "assay": "MTT cytotoxicity assay", "type": "cell-based", "settings": "Homo sapiens, MDA-MB-231, 24 h", "from_the_text": "as §1, §2"}, "[5]": {"tested_on": "MDA-MB-453", "assay": "MTT cytotoxicity assay", "type": "cell-based", "settings": "Homo sapiens, MDA-MB-453, 24 h, means ± SD of quadruplicate determinations", "from_the_text": "as §1, §2"}, "[6]": {"tested_on": "MDA-MB-435S", "assay": "MTT cytotoxicity assay", "type": "cell-based", "settings": "Homo sapiens, 24 h, means ± SD of quadruplicate determinations", "from_the_text": "as §1, §2"}, "[7]": {"tested_on": "MDA-MB-436", "assay": "MTT cytotoxicity assay", "type": "cell-based", "settings": "Homo sapiens, MDA-MB-436, 24 h", "from_the_text": "as §1, §2"}, "[8]": {"assay": "Pharmacokinetic study", "type": "in vivo, Sprague-Dawley rats", "settings": "rat; for MRT last: read-out: MRT0-t", "method": "Eleven Sprague–Dawley rats (220–250 g, female) were bought from Hunan SJA Laboratory Animal Co., Ltd. (Changsha, China), and maintained and monitored in a specific pathogen-free environment. They were fasted overnight before the experiments. All rat studies were conducted according to protocols approved by the Animal Ethics Committee of Hubei University of Medicine. Six rats were administered with Eth (2 mg/kg) by intravenous injection, and the other five rats were inoculated with Eth (15 mg/kg) by intragastric injection. Blood samples of […] were collected from the orbit at the time points indicated. The plasma concentrations of Eth were determined by […] (Figure S1). The pharmacokinetic parameters were obtained from the pharmacokinetic software DAS 2.0 (Drug and Statistics Version 2.0).\nWe then tested the pharmacokinetic features of Eth in Sprague-Dawley rats. To do this, six rats were administered Eth (2 mg/kg) by intravenous (i.v.) injection, and another five rats were inoculated with Eth (15 mg/kg) by intragastric (i.g.) injection. the mean plasma concentration-time profiles are shown in Figures 6J, K, and the main pharmacokinetic parameters are summarized in Table 3. […] Therefore, Eth could be a potential therapeutic agent against BC."}, "[9]": {"tested_on": "MCF-7, MDA-MB-231, and MDA-MB-436 cells", "assay": "Soft-agar colony formation assay", "type": "cell-based, human", "settings": "2 weeks", "method": "Cells were suspended in 1 mL of L-15 or DMEM containing 0.3% low-melting-point agarose (Amresco, Cleveland, Oh, USA) and 10% FBS, and plated on a bottom layer containing 0.6% agarose and 10% FBS in 6-well plate in triplicate. After 2 weeks, plates were stained with 0.2% gentian violet and the colonies were counted under light microscope (IX70; Olympus Corporation, Tokyo, Japan) after 2 weeks."}, "[10]": {"settings": "female, Sprague-Dawley, plasma, iv, i.v. (2 mg/kg)"}, "[11]": {"settings": "female, Sprague-Dawley, plasma, po, i.g. (15 mg/kg)"}},
  "note": "Like-named read-outs stand apart in the source and are kept apart here.",
  "data": [
    {"compound": "CCOC1c2c(ccc3c2OCO3)-c2ccc3cc4c(cc3c2N1C)OCO4", "note": "(stereo not shown) [Eth, Ethoxysanguinarine]", "values": [
      {"measurement": "IC50", "setting": "[1]", "result": "3.29 ± 1.5", "unit": "µM"},
      {"measurement": "IC50", "setting": "[2]", "result": "2.79 ± 0.39", "unit": "µM"},
      {"measurement": "IC50", "setting": "[3]", "result": "6.67 ± 1.7", "unit": "µM"},
      {"measurement": "IC50", "setting": "[4]", "result": "3.75 ± 0.94", "unit": "µM"},
      {"measurement": "IC50", "setting": "[5]", "result": "7.06 ± 0.59", "unit": "µM"},
      {"measurement": "IC50", "setting": "[6]", "result": "4.58 ± 0.77", "unit": "µM"},
      {"measurement": "IC50", "setting": "[7]", "result": "2.63 ± 0.65", "unit": "µM"},
      {"measurement": "AUC(0-t)", "setting": "[8]; [10]", "result": "3640 ± 1560", "unit": "ng·h/mL"},
      {"measurement": "Cmax", "setting": "[8]; [10]", "result": "3580 ± 756", "unit": "ng/mL"},
      {"measurement": "half-life", "setting": "[8]; [10]", "result": "3.54 ± 1.79", "unit": "h"},
      {"measurement": "clearance", "setting": "[8]; female, Sprague-Dawley, plasma, iv, i.v. (2 mg/kg), read-out: CLz (converted)", "result": 9.32, "unit": "mL/min/kg"},
      {"measurement": "MRT last", "setting": "[8]; [10]", "result": "2.18 ± 0.462", "unit": "h"},
      {"measurement": "AUC(0-t)", "setting": "[8]; [11]", "result": "3390 ± 592", "unit": "ng·h/mL"},
      {"measurement": "Cmax", "setting": "[8]; [11]", "result": "498 ± 110", "unit": "ng/mL"},
      {"measurement": "half-life", "setting": "[8]; [11]", "result": "4.05 ± 1.58", "unit": "h"},
      {"measurement": "MRT last", "setting": "[8]; [11]", "result": "7.03 ± 1.01", "unit": "h"},
      {"measurement": "Tmax", "setting": "[8]; female, Sprague-Dawley, plasma, iv, 2 mg/kg, i.v. (2 mg/kg), read-out: Tmax", "result": 0.083, "unit": "h"},
      {"measurement": "Tmax", "setting": "[8]; female, Sprague-Dawley, plasma, iv, 2 mg/kg, i.v. (2 mg/kg), read-out: time of peak plasma concentration (converted)", "result": 0.033, "unit": "h"},
      {"measurement": "Tmax", "setting": "[8]; female, Sprague-Dawley, plasma, po, 15 mg/kg, i.g. (15 mg/kg), read-out: Tmax", "result": 2, "unit": "h"},
      {"measurement": "BA", "setting": "[8]; i.g. (15 mg/kg)", "result": 12.43, "unit": "%"},
      {"measurement": "CLz", "setting": "[8]; i.g. (15 mg/kg)", "result": "73.63 ± 14.9", "unit": "mL/min/kg"},
      {"measurement": "clonogenic ability (colony formation)", "setting": "[9]", "result": "significantly inhibited the clonogenic ability"}
    ]}
  ]
}
